≈ marks a conversion by molar mass, not a printed value. Calls of active or inactive are those of the source. No cut-off for these calls is given here.
Tests used:
[1] = target: Beta-lactamase (Enterobacter cloacae, UniProt P05364); experiment: Inhibitory activity against class C Beta-lactamase isolated from Enterobacter cloacae
[2] = target: Beta-lactamase TEM (Escherichia coli) (UniProt P62593); experiment: Inhibitory activity against class A Beta-lactamase TEM isolated from Escherichia coli
[3] = test system: Enterobacter cloacae; experiment: The ratio of compound to that of piperacillin was evaluated for antimicrobial activity against Enterobacter cloacae OC 4080 by inhibiting enzyme P99 at 4 ug/mL; type: functional
[4] = test system: Escherichia coli; experiment: The ratio of compound to that of piperacillin was evaluated for antimicrobial activity against Escherichia coli OC 4075 by inhibiting enzyme TEM-1 at 4 ug/mL; type: functional
[5] = test system: Pseudomonas aeruginosa; experiment: The ratio of compound to that of piperacillin was evaluated for antimicrobial activity against Pseudomonas aeruginosa OC 4270 by inhibiting enzyme AmpC(ind) at 4 ug/mL; type: functional
[6] = test system: Pseudomonas aeruginosa; experiment: The ratio of compound to that of piperacillin was evaluated for antimicrobial activity against Pseudomonas aeruginosa OC 4290 by inhibiting enzyme AmpC(const) at 4 ug/mL; type: functional
[7] = test system: Serratia marcescens; experiment: The ratio of compound to that of piperacillin was evaluated for antimicrobial activity against Serratia marcescens OC 4101 by inhibiting enzyme AmpC(ind) at 4 ug/mL; type: functional
[8] = test system: Serratia marcescens; experiment: The ratio of compound to that of piperacillin was evaluated for antimicrobial activity against Serratia marcescens OC 4294 by inhibiting enzyme AmpC(const) at 4 ug/mL; type: functional
[9] = test system: Enterobacter cloacae; experiment: The compound was evaluated for antimicrobial activity against Enterobacter cloacae OC 4080 by inhibiting enzyme P99; type: functional
[10] = test system: Escherichia coli; experiment: The compound was evaluated for antimicrobial activity against Escherichia coli OC 4075 by inhibiting enzyme TEM-1; type: functional
[11] = test system: Pseudomonas aeruginosa; experiment: The compound was evaluated for antimicrobial activity against Pseudomonas aeruginosa OC 4270 by inhibiting enzyme AmpC(ind); type: functional
[12] = test system: Pseudomonas aeruginosa; experiment: The compound was evaluated for antimicrobial activity against Pseudomonas aeruginosa OC 4290 by inhibiting enzyme AmpC(const); type: functional
[13] = test system: Serratia marcescens; experiment: The compound was evaluated for antimicrobial activity against Serratia marcescens OC 4101 by inhibiting enzyme AmpC(ind); type: functional
[14] = test system: Serratia marcescens; experiment: The compound was evaluated for antimicrobial activity against Serratia marcescens OC 4294 by inhibiting enzyme AmpC(const); type: functional
[15] = test system: Enterobacter cloacae; experiment: The compound was evaluated for antimicrobial activity against Enterobacter cloacae OC 4081 by inhibiting enzyme E2 (const); type: functional
[16] = test system: Enterobacter cloacae; experiment: The compound was evaluated for antimicrobial activity against Enterobacter cloacae OC 4092 by inhibiting enzyme E2 (ind); type: functional
[17] = test system: Enterobacter cloacae; experiment: The ratio of compound to that of piperacillin was evaluated for antimicrobial activity against Enterobacter cloacae OC 4080 by inhibiting enzyme P99 at 1 ug/mL; type: functional
[18] = test system: Enterobacter cloacae; experiment: The ratio of compound to that of piperacillin was evaluated for antimicrobial activity against Enterobacter cloacae OC 4080 by inhibiting enzyme P99 at 4 ug/mL; not applicable; type: functional, organism-based
[19] = test system: Escherichia coli; experiment: The ratio of compound to that of piperacillin was evaluated for antimicrobial activity against Escherichia coli OC 4075 by inhibiting enzyme TEM-1 at 1 ug/mL; type: functional
[20] = test system: Escherichia coli; experiment: The ratio of compound to that of piperacillin was evaluated for antimicrobial activity against Escherichia coli OC 4075 by inhibiting enzyme TEM-1 at 4 ug/mL; not applicable; type: functional, organism-based
[21] = test system: Pseudomonas aeruginosa; experiment: The ratio of compound to that of piperacillin was evaluated for antimicrobial activity against Pseudomonas aeruginosa OC 4270 by inhibiting enzyme AmpC(ind) at 1 ug/mL; type: functional
[22] = test system: Pseudomonas aeruginosa; experiment: The ratio of compound to that of piperacillin was evaluated for antimicrobial activity against Pseudomonas aeruginosa OC 4290 by inhibiting enzyme AmpC(const) at 1 ug/mL; type: functional
[23] = test system: Serratia marcescens; experiment: The ratio of compound to that of piperacillin was evaluated for antimicrobial activity against Serratia marcescens OC 4101 by inhibiting enzyme AmpC(ind) at 1 ug/mL; type: functional
[24] = test system: Serratia marcescens; experiment: The ratio of compound to that of piperacillin was evaluated for antimicrobial activity against Serratia marcescens OC 4294 by inhibiting enzyme AmpC(const) at 1 ug/mL; type: functional
[25] = Enterobacter cloacae, read-out: MIC
[26] = Pseudomonas aeruginosa, read-out: MIC
[27] = Escherichia coli, read-out: MIC

Sequence of Beta-lactamase TEM (Escherichia coli) (P62593 whole entry, looked up): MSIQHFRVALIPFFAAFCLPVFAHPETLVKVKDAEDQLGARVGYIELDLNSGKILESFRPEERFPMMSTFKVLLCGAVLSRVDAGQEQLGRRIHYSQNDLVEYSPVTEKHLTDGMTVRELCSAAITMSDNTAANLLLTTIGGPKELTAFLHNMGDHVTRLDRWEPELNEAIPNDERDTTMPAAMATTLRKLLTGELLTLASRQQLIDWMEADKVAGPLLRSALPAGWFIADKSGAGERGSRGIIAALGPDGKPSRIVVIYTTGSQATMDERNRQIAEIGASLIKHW
Sequence of Beta-lactamase (P05364 whole entry): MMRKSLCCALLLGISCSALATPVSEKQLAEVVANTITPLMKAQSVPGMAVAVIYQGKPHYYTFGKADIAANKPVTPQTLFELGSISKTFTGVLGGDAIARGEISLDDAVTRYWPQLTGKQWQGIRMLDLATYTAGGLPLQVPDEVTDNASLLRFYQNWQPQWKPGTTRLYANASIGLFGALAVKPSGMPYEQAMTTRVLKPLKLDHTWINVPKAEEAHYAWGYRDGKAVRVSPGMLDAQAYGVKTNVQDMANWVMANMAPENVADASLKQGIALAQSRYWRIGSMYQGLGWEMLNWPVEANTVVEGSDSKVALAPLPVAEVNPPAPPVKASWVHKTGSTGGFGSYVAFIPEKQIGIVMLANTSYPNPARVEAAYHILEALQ

CC(=O)Nc1ccccc1/C=C1\SC(=S)NC1=O
IC50 [1]: > 700 µM
IC50 [2]: 190 µM

O=C1NC(=S)SC1=CC=Cc1ccco1
IC50 [1]: 62 µM
IC50 [2]: 100 µM

O=C1NC(=S)SC1=CC=Cc1ccccc1
IC50 [1]: 76 µM
IC50 [2]: > 700 µM

C[C@]1(Cn2ccnn2)[C@H](C(=O)O)N2C(=O)C[C@H]2S1(=O)=O [TAZOBACTAM]
MIC [3]: 64 mg/L
MIC [4]: 8 mg/L
MIC [5]: 8 mg/L
MIC [6]: 32 mg/L
MIC [7]: 4 mg/L
MIC [8]: 32 mg/L

O=C1NC(=S)S/C1=C\c1cn(-c2ccccc2)nn1
IC50 [1]: 83 µM
IC50 [2]: > 700 µM

O=C1/C(=C/c2ccccc2)SC(=S)N1CNc1nn[nH]n1
IC50 [1]: 435 µM
IC50 [2]: > 700 µM

O=C1NC(=S)S/C1=C\c1ccccc1C(=O)O
IC50 [1]: > 700 µM
IC50 [2]: > 700 µM

O=C1NC(=S)S/C1=C\c1ccccc1[N+](=O)[O-]
IC50 [1]: 290 µM
IC50 [2]: > 700 µM

O=C1NC(=S)S/C1=C\c1ccc([N+](=O)[O-])cc1
IC50 [1]: 43 µM
IC50 [2]: > 700 µM

O=C1/C(=C/c2ccccc2)SC(=S)N1CNc1nncs1
IC50 [1]: 246 µM
IC50 [2]: 138 µM

O=C1NC(=S)SC1=CC=Cc1ccc([N+](=O)[O-])cc1
IC50 [1]: 4.2 µM
IC50 [2]: 100 µM

CCN1CCN(C(=O)N[C@@H](C(=O)N[C@@H]2C(=O)N3[C@@H]2SC(C)(C)[C@@H]3C(=O)O)c2ccccc2)C(=O)C1=O [PIPERACILLIN]
MIC [9, 25]: > 64 mg/L
MIC [10]: > 64 mg/L
MIC [11, 26]: 8 mg/L (≈ 15.5 µM)
MIC [12, 26]: > 64 mg/L
MIC [13]: 8 mg/L (≈ 15.5 µM)
MIC [14]: > 64 mg/L

O=C1NC(=S)S/C1=C\CCc1ccccc1
IC50 [1]: 9.7 µM
IC50 [2]: 32 µM

O=C1NC(=S)S/C1=C1/C(=O)Nc2ccccc21
IC50 [1]: 2.6 µM
IC50 [2]: 8.7 µM

O=C1NC(=S)S/C1=C\c1ccccc1O
IC50 [1]: 335 µM
IC50 [2]: > 700 µM

N#Cc1ccc(/C=C2\SC(=S)NC2=O)cc1
IC50 [1]: 500 µM
IC50 [2]: > 700 µM

O=C1NC(=S)SC1=CC=Cc1ccc([N+](=O)[O-])o1
IC50 [1]: 0.45 µM
MIC [9]: 2 mg/L (≈ 7.08 µM)
MIC [9, 25]: 2 mg/L (≈ 7.08 µM)
MIC [15]: 32 mg/L (≈ 113 µM)
MIC [16]: 32 mg/L (≈ 113 µM)
Ratio [17]: 64
Ratio [18]: inactive
Ratio [19]: 64
Ratio [20]: inactive
MIC [10]: 2 mg/L (≈ 7.08 µM)
MIC [10, 27]: 2 mg/L (≈ 7.08 µM)
MIC [11]: 32 mg/L (≈ 113 µM)
MIC [11, 26]: 32 mg/L (≈ 113 µM)
MIC [12]: 32 mg/L (≈ 113 µM)
MIC [12, 26]: 32 mg/L (≈ 113 µM)
Ratio [21]: 4
Ratio [5]: 4
Ratio [22]: 16
Ratio [6]: 8
MIC [13]: 8 mg/L (≈ 28.3 µM)
MIC [14]: 8 mg/L (≈ 28.3 µM)
Ratio [23]: 2
Ratio [7]: 2
Ratio [24]: 32
Ratio [8]: 8
IC50 [2]: 100 µM

O=C1NC(=O)C(=CC=Cc2ccc([N+](=O)[O-])o2)S1
IC50 [1]: > 50 µM
MIC [9, 25]: 0.5 mg/L (≈ 1.88 µM)
MIC [15]: 4 mg/L (≈ 15 µM)
MIC [16]: 4 mg/L (≈ 15 µM)
MIC [10, 27]: 1 mg/L (≈ 3.76 µM)
MIC [11, 26]: 32 mg/L (≈ 120 µM)
MIC [12, 26]: 32 mg/L (≈ 120 µM)
IC50 [2]: > 50 µM

O=C(O)CN1C(=O)/C(=C/c2ccccc2)SC1=S
IC50 [1]: > 700 µM
IC50 [2]: > 700 µM

O=C1NC(=S)S/C1=C\c1cn(-c2ccccc2)cn1
IC50 [1]: > 700 µM
IC50 [2]: > 700 µM

CN(C)c1ccc(C=CC=C2SC(=S)NC2=O)cc1
IC50 [1]: 8 µM
IC50 [2]: > 100 µM

CCN1C(=O)/C(=C/c2ccccc2)SC1=S
IC50 [1]: 240 µM
IC50 [2]: 432 µM
